This note sets out measurements from PubChem BioAssay (NCI).

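Assay format: 96-well plates, 48-hour exposure. GI50: concentration for 50% inhibition of growth. TGI denotes the concentration required for complete inhibition of growth.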

What all share (test): DTP human tumour cell line panel, 48 h
The subject of test [1] is OVCAR-4 ovarian.
Test [2] relates to MOLT-4 leukemia.
Test [3] concerns CAKI-1 renal.
Test [4] relates to NCI-H460 lung.
The test system of test [5] is SF-295 CNS.
The subject of test [6] is 786-0 renal.
The subject of test [7] is NCI/ADR-RES ovarian.
Test [8] concerns EKVX NSCLC.
In test [9] the test system is HT29 colon.
The test system of test [10] is SN12C renal.

For the compound `O=C1NC(=O)C(c2cccc([N+](=O)[O-])c2)=C1Nc1cc(Cl)c(O)c(Cl)c1`, the GI50 (commonly the concentration at which growth is held to half of that of the control) is more than 25 µM in test [1]; more than 25 µM in test [2]; more than 20.9 µM in test [3]; more than 23.4 µM in test [4]; more than 16.3 µM in test [5]; more than 23.3 µM in test [6]. Besides, the GI50 in test [7], in test [8], in [9] and in test [10] was more than 25 µM throughout. Besides, the TGI in test [1], in [2], in [3], in test [4], in test [5] and in test [6] was more than 25 µM each time. In addition, the TGI in test [7], in test [8], in test [9] and in test [10] was more than 25 µM each time.
`N#Cc1c(N/N=C/c2ccc(Cl)cc2Cl)nc(N)nc1N1CCCC1`: the GI50 in test [1] was 14.8 µM; in test [2] it was 25 µM; in test [3], 21.7 µM; in test [4], 63.9 µM; in [5] it was 18.8 µM; in [6], 19.5 µM. For the same compound, the GI50 in test [7] was 19.4 µM; in test [8], more than 100 µM; in [9] it was 37.1 µM; in test [10], 51.9 µM. In addition, the TGI – broadly, the concentration at which net growth stops – in test [1] is more than 100 µM; in test [2], more than 100 µM; in [3], 63.2 µM; in [4] it was more than 100 µM; in [5], more than 100 µM; in [6], 47.6 µM. Further, the TGI in test [7] is 82.4 µM; in [8], more than 100 µM; in [9], more than 100 µM; in [10], more than 100 µM.
Turning to `OCc1ccn2c1[C@@H](O)CC2`, the total growth inhibition concentration (TGI) in test [1], in test [2], in test [3], in test [4], in [5] and in test [6] was more than 100 µM throughout. Further, the TGI in test [7], in [8], in test [9] and in test [10] was more than 100 µM throughout.
With `COc1ccc(-c2coc3c4c(ccc3c2=O)OCO4)cc1OC`, the TGI in test [1], in [2], in test [3], in test [4], in [5] and in test [6] was more than 100 µM in each case. Also, the total growth inhibition concentration (TGI) in test [7], in test [8], in test [9] and in test [10] was more than 100 µM throughout.
`CCn1sc2ccccc2c1=O`: the concentration for total growth inhibition (TGI) is 89.8 µM in test [1]; more than 100 µM in test [2]; 11.4 µM in test [3]; more than 100 µM in [4]; more than 55.1 µM in [5]; 6.87 µM in test [6]. In addition, the TGI in test [7] turned out to be 69.3 µM; in test [8], 38.2 µM; in test [9], 34 µM; in [10] it was 22.7 µM.
Consider `O=C1NC(=O)/C(=C\c2ccccc2)C2=C1CCCC2`, for which the GI50 was 14.8 µM in test [1]; 2.77 µM in [2]; 5.63 µM in test [3]; 16.3 µM in [4]; 3.98 µM in test [5]; 7.6 µM in test [6]. For the same compound, the GI50 in [7] was 7.54 µM; in test [8], 14.3 µM; in test [9] it was 14.9 µM; in test [10], 3.03 µM. The total growth inhibition concentration (TGI) in test [1] came out at 29.2 µM; in test [2] it was 7.73 µM; in test [3] it was 17.3 µM; in [4], 36 µM; in [5], 17.6 µM; in [6] it was 20.2 µM. Moreover, the TGI stood at 19.2 µM in test [7], 29.5 µM in test [8], 44.1 µM in [9] and 11 µM in [10].
In the case of `c1ccc2c(c1)c1c(c3ccccc32)CN2CCCC2C1` (stereo not given), the TGI in test [1] is more than 100 µM; in test [2], more than 100 µM; in test [3], more than 100 µM; in [4], more than 100 µM; in test [5], more than 35.5 µM; in test [6] it was 23.1 µM. Further, the TGI in test [7] is more than 41.5 µM; in test [8] it was more than 100 µM; in [9] it was more than 34.8 µM; in test [10], 14.9 µM.
Take `NC(=O)OCCn1cc(-c2nc(-c3c[nH]c4ncccc34)cs2)c2ccccc21`: the GI50 in test [1] is 1.78 µM; in test [2], 2.19 µM; in [3], 2.42 µM; in test [4], 2.46 µM; in [5], 2.29 µM; in test [6], 2.38 µM. Besides, the GI50 in test [7] was 2.82 µM; in test [8], 1.3 µM; in [9], 1.77 µM; in [10], 2.46 µM. Further, the total growth inhibition concentration (TGI) in test [1] was found to be 11.9 µM; in [2] it was 8.61 µM; in test [3], 8.54 µM; in test [4], 12.5 µM; in [5], 7.7 µM; in test [6], 7.23 µM. The TGI in [7] was more than 100 µM; in [8], 7.68 µM; in [9], 8.55 µM; in test [10], 32.4 µM.
